This is an account of results in patent publication US8592374B2, “Neurotrophic peptides” (Research Foundation for Mental Hygiene, Inc., priority 2007, dated 2013).

The subject of assay [1] is dentate gyrus progenitors. Briefly: DCX expression in BrdU labeled progenitors in the dentate gyrus. It counts as in vivo, mice. Conditions: 14 day treatment group. From the text:
(§1) All experiments involving mice were done on 8-10 month old female retired breeders of C57BL6 background. A total of 33 mice were divided into 10 groups of 3 animals each (except control group which had 6 mice). The groups are described in Table 1. Details of CNTF peptides are described in Table 2.
(§2) The animals were kept in groups of 3 per cage. The mice were given daily intraperitoneal injections of four CNTF peptides either separately or in a mixture for 2 weeks as described in table 1. From day 2, BrdU (Bromodeoxyuridine; 150 mg/Kg) was added to the injections. The animals were sacrificed 24 hours after the last injection (FIG. 1). Briefly, the animals were perfused transcardially with PBS and their brains taken out and dissected into halves. One hemisphere from each animal was frozen for biochemical analysis and the other was fixed in 4% paraformaldehyde for 48 hours followed by equilibration in 30% sucrose in PBS overnight. These were then processed for immunohistochemistry.
(§3) Fixed tissues were cut into 40 μm sections on a freezing sliding microtome. One in 5 sections per brain was processed for BrdU staining and visualized by immunoflorecence. Cell counting was done on these sections to determine the number of BrdU labeled cells (representing newly born cells) in the dentate gyrus of the hippocampus. The area of counting was limited to the granule cell layer and the subgranular zone (a two-nucleus thick layer adjacent to the granule cell layer). For counting purposes, the dentate gyrus was divided into two areas, the outer granule cell layer (oGCL) consisting of out half of the granule cell layer, and the subventricular zone (SVZ) comprising of the inner half (towards the hilus) of the granule cell layer plus a two-nucleus thick layer adjacent to the outer border of the hilus. Cell counting was done on confocal images of the sections according to the optical dissector principle. Volumetric analysis was carried out with the help of Image Pro software.
On the technique in general: Uptake of a labelled nucleoside into DNA is a usual measure of proliferation.

A further assay deals with dentate gyrus. As to the kind of experiment: MAP2 and synaptophysin immunoreactivity in the dentate gyrus (mean pixel intensity), Example 3. The format is in vivo, mice. Conditions: mean pixel intensity in outlined area. The procedure:
as §2

The test system of assay [2] is dentate gyrus progenitor cells. Briefly: Cell proliferation (BrdU labeled cells) in the dentate gyrus of mice given CNTF peptides i.p. The format is in vivo.
Source text: as §1
as §2, with “Table” for “table”, “injection.” for “injection (FIG. 1).”
as §3, with “of one” for “of out”, “the subgranular” for “the subventricular”, “zone (SGZ)” for “zone (SVZ) comprising”
as §2, §3

For assay [3], the system named is signal transduction of LIF and CNTF. As to the kind of experiment: Interference with signal transduction of LIF and CNTF.
The next assay concerns mice. As to the kind of experiment: Morris Water Maze, Peptide 6 subcutaneous pellets. The format is in vivo. Particulars: 30 day group. On the procedure: Behavioral tests employing Morris Water maze task-based memory acquisition, retention and recall paradigms have also been carried out. Two groups of 18 mice each were treated with Peptide 6/Placebo containing implantable subcutaneous pellets with user specified timed release kinetics: 14 days for group 1 and 30 days for group 2.

[4] abbreviates: both concentrations (0.5 and 5 nmoles/animal).

Turning to Ac-VGDGGLFEKKL-NH2 [Peptide 6], the “differentiation of dentate gyrus progenitors into DCX (doublecortin) expressing cells” value in assay [1] is reported as “two fold increase”. Also, in the assay on dentate gyrus, the “MAP2 immunoreactivity in the dentate gyrus” value is listed as “statistically significant increase” and the “synaptophysin immunoreactivity in the dentate gyrus” value is recorded as “statistically significant increase”. In assay [2] (setting [4]), the “cell proliferation in the SGZ (subgranular zone)” value is on record as “increased cell proliferation” and the “cell proliferation in the oGCL (outer portion of the granule cell layer)” value is reported as “increased cell proliferation”. The “proliferation of dentate gyrus progenitor cells compared with Peptide 9” value in assay [2] (daily i.p. injections for 2 weeks) is given as “more proliferation than Peptide 9”. The “proliferation of dentate gyrus progenitor cells” value in assay [2] (daily i.p. injections for 2 weeks, BrdU labeling, 8-10 month old female C57BL6 mice) is listed as “statistically significant increase”. In assay [3], the “interference with signal transduction of LIF versus CNTF” value is given as “interferes with the signal transduction of LIF more than with that of CNTF”. In addition, the “memory acquisition (time spent and distance covered in the target quadrant), Morris Water Maze” value with mice is “significant improvement in memory acquisition”.
